From ChEMBL document CHEMBL1909046, “DrugMatrix in vitro pharmacology data”

Columns and labels:
[1] = target: D(1A) dopamine receptor (Homo sapiens, UniProt P21728); experiment: DRUGMATRIX: Dopamine D1 radioligand binding (ligand: [3H] SCH-23390); assay type: cell membranes, CHO, Membrane; conditions: Not Active = under 50% inhibition at 10 µM
[2] = target: T1, Muscarinic acetylcholine receptor M2 (Homo sapiens, UniProt P08172); assay type: cell membranes, CHO-K1, Membrane; further: in other assays of this panel Not Active means under 50% inhibition at 10 µM
T1 sequence (P08172 whole entry): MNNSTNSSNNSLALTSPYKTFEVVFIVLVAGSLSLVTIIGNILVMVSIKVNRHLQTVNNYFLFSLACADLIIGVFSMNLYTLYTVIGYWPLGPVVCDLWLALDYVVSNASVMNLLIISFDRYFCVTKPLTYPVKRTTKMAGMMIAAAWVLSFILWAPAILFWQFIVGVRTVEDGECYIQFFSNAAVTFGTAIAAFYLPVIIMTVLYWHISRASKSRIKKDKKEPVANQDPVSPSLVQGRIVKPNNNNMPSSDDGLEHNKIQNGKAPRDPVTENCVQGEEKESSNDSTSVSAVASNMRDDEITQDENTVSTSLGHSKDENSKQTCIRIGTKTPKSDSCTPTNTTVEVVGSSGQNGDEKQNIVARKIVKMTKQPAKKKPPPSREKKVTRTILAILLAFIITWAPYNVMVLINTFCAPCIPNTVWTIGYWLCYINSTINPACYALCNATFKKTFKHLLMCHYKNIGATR

[3] = target: Epidermal growth factor receptor (Homo sapiens, UniProt P00533); experiment: DRUGMATRIX: Protein Tyrosine Kinase, EGF Receptor enzyme inhibition (substrate: Poly(Glu:Tyr)); assay type: cell-based, Insect cells; conditions: Not Active = under 50% inhibition at 10 µM
[4] = target: Substance-P receptor (Homo sapiens, UniProt P25103); assay type: cell membranes, CHO, Membrane; conditions: cho; further: in other assays of this panel Not Active means under 50% inhibition at 10 µM
[5] = target: T2, D(4) dopamine receptor (Homo sapiens, UniProt P21917); experiment: DRUGMATRIX: Dopamine D4.2 radioligand binding (ligand: [3H] Spiperone); assay type: cell membranes, CHO-K1, Membrane; conditions: cho-k1; Not Active = under 50% inhibition at 10 µM
T2 sequence (P21917 whole entry): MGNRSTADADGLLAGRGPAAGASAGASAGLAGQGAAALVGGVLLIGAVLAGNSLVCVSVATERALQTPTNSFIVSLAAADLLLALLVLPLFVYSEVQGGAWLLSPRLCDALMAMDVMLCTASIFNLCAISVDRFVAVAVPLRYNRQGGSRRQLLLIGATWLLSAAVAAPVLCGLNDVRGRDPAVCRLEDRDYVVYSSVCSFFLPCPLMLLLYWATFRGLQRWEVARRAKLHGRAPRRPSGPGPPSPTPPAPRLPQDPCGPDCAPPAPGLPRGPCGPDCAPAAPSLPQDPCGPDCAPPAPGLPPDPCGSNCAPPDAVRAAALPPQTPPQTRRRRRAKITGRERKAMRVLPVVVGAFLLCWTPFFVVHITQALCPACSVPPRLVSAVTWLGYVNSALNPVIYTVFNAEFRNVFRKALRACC

[6] = DRUGMATRIX: Sodium/nucleoside co-transporter radioligand binding (ligand: nitrobenzylthioinosine); assay type: cell membranes, Cavia porcellus, Dunkin-Hartley, Cerebral cortex, Membrane; conditions: Not Active = under 50% inhibition at 10 µM
[7] = target: T3, C-X-C chemokine receptor type 1 (Homo sapiens, UniProt P25024); further: in other assays of this panel Not Active means under 50% inhibition at 10 µM
T3 sequence (P25024 whole entry): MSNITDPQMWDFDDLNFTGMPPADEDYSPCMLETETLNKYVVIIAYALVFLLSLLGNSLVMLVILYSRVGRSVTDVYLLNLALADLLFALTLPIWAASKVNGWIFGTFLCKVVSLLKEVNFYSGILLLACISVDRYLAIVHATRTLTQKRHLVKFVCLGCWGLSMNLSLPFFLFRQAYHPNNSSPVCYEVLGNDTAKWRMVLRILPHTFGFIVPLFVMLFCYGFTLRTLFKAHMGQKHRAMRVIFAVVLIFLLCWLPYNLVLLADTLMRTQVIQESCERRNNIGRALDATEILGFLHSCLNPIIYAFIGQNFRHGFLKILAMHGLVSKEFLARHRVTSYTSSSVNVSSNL

Substance-P receptor, sequence (P25103 whole entry): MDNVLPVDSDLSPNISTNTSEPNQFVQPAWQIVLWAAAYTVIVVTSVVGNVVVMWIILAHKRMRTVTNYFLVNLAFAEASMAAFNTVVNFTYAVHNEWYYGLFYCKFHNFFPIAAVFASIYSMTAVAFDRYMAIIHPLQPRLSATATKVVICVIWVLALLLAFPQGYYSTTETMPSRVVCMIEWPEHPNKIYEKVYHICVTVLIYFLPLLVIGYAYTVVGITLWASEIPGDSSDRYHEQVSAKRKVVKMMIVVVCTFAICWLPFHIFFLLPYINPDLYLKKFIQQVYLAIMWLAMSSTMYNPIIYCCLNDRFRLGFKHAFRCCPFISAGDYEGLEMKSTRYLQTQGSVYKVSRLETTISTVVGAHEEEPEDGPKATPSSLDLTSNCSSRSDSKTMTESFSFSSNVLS
D(1A) dopamine receptor, sequence (P21728 whole entry): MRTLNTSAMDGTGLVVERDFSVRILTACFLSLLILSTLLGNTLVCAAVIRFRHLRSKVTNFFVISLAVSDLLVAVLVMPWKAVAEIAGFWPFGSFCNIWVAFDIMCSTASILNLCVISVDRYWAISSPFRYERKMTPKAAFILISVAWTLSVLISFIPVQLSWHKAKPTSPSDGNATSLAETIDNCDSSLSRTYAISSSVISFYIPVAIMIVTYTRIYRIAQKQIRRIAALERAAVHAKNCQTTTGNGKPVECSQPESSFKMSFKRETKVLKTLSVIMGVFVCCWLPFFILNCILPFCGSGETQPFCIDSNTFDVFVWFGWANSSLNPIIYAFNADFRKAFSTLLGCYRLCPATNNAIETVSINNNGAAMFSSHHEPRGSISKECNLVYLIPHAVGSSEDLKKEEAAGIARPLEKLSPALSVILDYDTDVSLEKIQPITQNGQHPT

Row | Compound | IC50 ([1]; cho) | IC50 ([2]; cho-k1) | IC50 ([3]; insect cells) | IC50 [4] | IC50 [5] | IC50 [6] | Ki [6] | IC50 [7] | IC50 ([3]; read-out: IC50) [nM] | Ki ([1]; cho) | Ki ([2]; cho-k1) | IC50 ([3]; insect cells, read-out: IC50) [nM] | Ki [4] | Ki [5] | Ki [7] | IC50 ([1]; read-out: IC50) [nM] | Ki ([1]; read-out: Ki) [nM] | IC50 ([2]; read-out: IC50) [nM] | Ki ([2]; read-out: Ki) [nM]
1 | COc1cc2c3cc1Oc1cc(ccc1O)C[C@@H]1c4c(cc(OC)c(O)c4Oc4ccc(cc4)C[C@@H]3N(C)CC2)CC[N+]1(C)C.[Cl-] | Not Active | Not Active | Not Active | Not Active | Not Active | Not Active | Not Active | Not Active |  |  |  |  |  |  |  |  |  |  | 
2 | Cc1cc(C(C#N)c2ccc(Cl)cc2)c(Cl)cc1NC(=O)c1cc(I)cc(I)c1O (stereo unspecified) [CLOSANTEL] | Not Active | Not Active |  | Not Active | Not Active | Not Active | Not Active | Not Active | 564 |  |  |  |  |  |  |  |  |  | 
3 | CC(NC(C)(C)C)C(=O)c1cccc(Cl)c1 (stereo unspecified) [BUPROPION] | Not Active | Not Active | Not Active | Not Active | Not Active | Not Active | Not Active | Not Active |  |  |  |  |  |  |  |  |  |  | 
4 | Cc1onc(-c2ccccc2Cl)c1C(=O)N[C@@H]1C(=O)N2[C@@H]1SC(C)(C)[C@@H]2C(=O)O [CLOXACILLIN] | Not Active | Not Active | Not Active | Not Active | Not Active | Not Active | Not Active | Not Active |  |  |  |  |  |  |  |  |  |  | 
5 | CADMIUM ACETATE | Not Active | Not Active |  | Not Active | Not Active | Not Active | Not Active | Not Active |  | Not Active | Not Active | 244 | Not Active | Not Active | Not Active |  |  |  | 
6 | CNCCCN1c2ccccc2CCc2ccccc21 [DESIPRAMINE] | Not Active | Not Active | Not Active | Not Active | Not Active | Not Active | Not Active | Not Active |  |  |  |  |  |  |  |  |  |  | 
7 | C[C@]12CC[C@@H]3c4ccc(O)cc4CC[C@H]3[C@@H]1CCC2=O [ESTRONE] | Not Active | Not Active | Not Active | Not Active | Not Active | Not Active | Not Active | Not Active |  |  |  |  |  |  |  |  |  |  | 
8 | C[C@]12CCC(=O)C=C1CC[C@@H]1[C@@H]2CC[C@@]2(C)[C@H]1CC[C@]2(C)O [METHYLTESTOSTERONE] | Not Active | Not Active | Not Active | Not Active | Not Active | Not Active | Not Active | Not Active |  |  |  |  |  |  |  |  |  |  | 
9 | CC(=O)O[C@@]12CO[C@@H]1C[C@H](O)[C@@]1(C)C(=O)[C@H](O)C3=C(C)[C@@H](OC(=O)[C@H](O)[C@@H](NC(=O)OC(C)(C)C)c4ccccc4)C[C@@](O)([C@@H](OC(=O)c4ccccc4)[C@H]21)C3(C)C.O.O.O [DOCETAXEL] | Not Active | Not Active | Not Active | Not Active | Not Active | Not Active | Not Active | Not Active |  |  |  |  |  |  |  |  |  |  | 
10 | Nc1ncn([C@@H]2O[C@H](CO)[C@@H](O)[C@H]2O)c(=O)n1 [AZACITIDINE] | Not Active | Not Active | Not Active | Not Active | Not Active | Not Active | Not Active | Not Active |  |  |  |  |  |  |  |  |  |  | 
11 | C[C@](N)(Cc1ccc(O)c(O)c1)C(=O)O [METHYLDOPA] | Not Active | Not Active |  | Not Active | Not Active | Not Active | Not Active | Not Active | 5230 |  |  |  |  |  |  |  |  |  | 
12 | O=C(CCCN1CC=C(n2c(=O)[nH]c3ccccc32)CC1)c1ccc(F)cc1 [DROPERIDOL] |  | Not Active | Not Active | Not Active | Not Active | Not Active | Not Active | Not Active |  |  |  |  |  |  |  | 1090 | 546 |  | 
13 | CN(C)CCCN1c2ccccc2Sc2ccccc21 [PROMAZINE] |  |  | Not Active | Not Active | Not Active | Not Active | Not Active | Not Active |  |  |  |  |  |  |  | 2460 | 1230 | 1090 | 387
14 | CN(C)c1nc(N(C)C)nc(N(C)C)n1 [ALTRETAMINE] | Not Active | Not Active | Not Active | Not Active | Not Active | Not Active | Not Active | Not Active |  |  |  |  |  |  |  |  |  |  | 
15 | CC1CC(OC(=O)C(O)c2ccccc2)CC(C)(C)C1 (stereo unspecified) [CYCLANDELATE] | Not Active | Not Active | Not Active | Not Active | Not Active | Not Active | Not Active | Not Active |  |  |  |  |  |  |  |  |  |  | 
16 | c1ccc2c(c1)c1cccc3ccc4cccc2c4c31 [BENZO[E]PYRENE] | Not Active | Not Active | Not Active | Not Active | Not Active | Not Active | Not Active | Not Active |  |  |  |  |  |  |  |  |  |  | 
17 | CC(C)[C@@]1(NC(=O)[C@@H]2C[C@@H]3c4cccc5[nH]cc(c45)C[C@H]3N(C)C2)O[C@@]2(O)[C@@H]3CCCN3C(=O)[C@H](Cc3ccccc3)N2C1=O.CS(=O)(=O)O [DIHYDROERGOCRISTINE MESYLATE] |  | Not Active | Not Active | Not Active | Not Active | Not Active | Not Active | Not Active |  |  |  |  |  |  |  | 1180 | 589 |  | 
18 | CC[C@@]1(O)C[C@H](O[C@H]2C[C@H](N(C)C)[C@H](O[C@H]3C[C@H](O)[C@H](O[C@H]4CCC(=O)[C@H](C)O4)[C@H](C)O3)[C@H](C)O2)c2c(cc3c(c2O)C(=O)c2c(O)cccc2C3=O)[C@H]1C(=O)OC [ACLARUBICIN] | Not Active | Not Active | Not Active | Not Active | Not Active | Not Active | Not Active | Not Active |  |  |  |  |  |  |  |  |  |  | 
19 | CCn1cc(C(=O)O)c(=O)c2cc(F)c(N3CCNCC3)cc21 [NORFLOXACIN] | Not Active | Not Active | Not Active | Not Active | Not Active | Not Active | Not Active | Not Active |  |  |  |  |  |  |  |  |  |  | 
20 | Cc1c(O)c(=O)ccn1C [DEFERIPRONE] | Not Active | Not Active | Not Active | Not Active | Not Active | Not Active | Not Active | Not Active |  |  |  |  |  |  |  |  |  |  | 
21 | NC1=NC(=O)C(c2ccccc2)O1 (stereo unspecified) [PEMOLINE] | Not Active | Not Active | Not Active | Not Active | Not Active | Not Active | Not Active | Not Active |  |  |  |  |  |  |  |  |  |  | 
22 | Sc1ncnc2nc[nH]c12 [MERCAPTOPURINE ANHYDROUS] | Not Active | Not Active | Not Active | Not Active | Not Active | Not Active | Not Active | Not Active |  |  |  |  |  |  |  |  |  |  | 
23 | COCCc1ccc(OCC(O)CNC(C)C)cc1 (stereo unspecified) [METOPROLOL] | Not Active | Not Active | Not Active | Not Active | Not Active | Not Active | Not Active | Not Active |  |  |  |  |  |  |  |  |  |  | 
24 | O=c1[nH]c(=O)n([C@H]2C[C@H](O)[C@@H](CO)O2)cc1I [IDOXURIDINE] | Not Active | Not Active | Not Active | Not Active | Not Active | Not Active | Not Active | Not Active |  |  |  |  |  |  |  |  |  |  | 
